Where “and” joins values, the source holds several entries; their conditions need not be identical. Equal values may be shown once. Marks after values point to notes of the source that are not given here.
Tests used:
Type in all cases: cell-based
[1] = system: P. gingivalis virulence genes; assay: Virulence gene expression in multi-species biofilm (SYBR RT-qPCR); conditions: for fold change in fimA expression, geometric mean (95% C.I.) / fold change in kgp expression, geometric mean (95% C.I.) / fold change in partC expression, geometric mean (95% C.I.) / fold change in rgpA expression, geometric mean (95% C.I.): relative to control, 2^-ΔΔCt, n = 3
Procedure, shortened: (§1)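 Multi-species biofilms on hydroxyapatite disks were grown 24 h under microaerophilic conditions at 37 °C, then rinsed three times daily for 3 min over 3 days with substrate in PBS at 1 M or 1% (w/v); PBS pH 5.7 served as control. Virulence gene expression was measured by SYBR RT-qPCR normalized to housekeeping genes, giving 2^-ΔΔCt fold change versus control as geometric mean (n = 3).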

[2] = system: A. actinomycetemcomitans virulence genes; assay: as above
Procedure, shortened: as §1

[3] = system: F. nucleatum virulence genes; assay: as above; conditions: for fold change in ABC transp. perm. (ABC transporter permease) expression, geometric mean (95% C.I.) / fold change in EF-G expression, geometric mean (95% C.I.) / fold change in but. -coA transf. (butyrate-acetoacetate CoA-transferase) expression, geometric mean (95% C.I.) / fold change in hemin receptor expression, geometric mean (95% C.I.) / fold change in hemolysin expression, geometric mean (95% C.I.) / fold change in ompA expression, geometric mean (95% C.I.) / fold change in transposase expression, geometric mean (95% C.I.): relative to control = 1, 2^-ΔΔCt, n = 3
Procedure, shortened: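 Multi-species biofilms on CAD-HA disks (Amsterdam Active Adhesion model) established 24 h at 37° C. under microaerophilic conditions, then rinsed 3 min three times daily for 3 days with substrate (1 M or 1% (w/v) in PBS); PBS pH 5.7 control. 33 virulence genes from 4 periodontal pathogens quantified by SYBR RT-qPCR, housekeeping-normalized; fold change by 2^-ΔΔCt, geometric mean (n = 3).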

V. parvula = assay: Multi-species biofilm composition, absolute abundance (Geq/mL); conditions: repeated rinsing
F. nucleatum = assay: as above; conditions: repeated rinsing
Procedure, shortened: (§2)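 CAD-HA disk biofilms, 24 h, 37° C., 170 rpm, 6% O2, 7% CO2. Rinses: 1 M substrate, 3 min, 3×/d, 3 d, RT, 250 rpm; ctrl PBS pH 5.7. Log(Geq/mL), n = 3.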

S. mutans = assay: as above; conditions: repeated rinsing
S. salivarius = assay: as above; conditions: repeated rinsing
S. sanguinis = assay: as above; conditions: repeated rinsing
Procedure, shortened: as §2

A. viscosus = assay: as above; conditions: repeated rinsing
[4] = system: multi-species biofilm (beneficial/commensal species, periodontal pathogens, cariogenic pathogens); assay: Multi-species biofilm composition, relative proportions and group changes
Procedure, shortened: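 Multi-species biofilms grown 24 h on calcium-deficient hydroxyapatite disks in the Amsterdam Active Adhesion model. Then rinsed 3 times daily for 3 min (RT, 250 rpm) over 3 days with 1 M NADG, α-D-lactose, D-(+)-trehalose or D-(+)-raffinose; PBS pH 5.7 without substrate as control. Species abundance given as mean ± SD (n = 3) log genome equivalents per mL.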

[5] = lower part of Table 6a, substrate 1%(w/v), relative to control = 1
[6] = substrate 1 M, relative to control = 1, 2^-ΔΔCt, n = 3
[7] = Table 3, separate experiments, concentration not given

CC(=O)N[C@H]1C(O)O[C@H](CO)[C@@H](O)[C@@H]1O (stereo partly drawn) [NADG, N-acetyl-D-glucosamine]
downregulation of P. gingivalis partC expression ([1]; substrate 1% (w/v)): approximately 2.8 fold
fold change in fimA expression, geometric mean (95% C.I.) ([1]; substrate 1 % (w/v)): 1.15 (0.32-4.06) fold
fold change in kgp expression, geometric mean (95% C.I.) ([1]; substrate 1 % (w/v)): 1.81 (0.44-7.50) fold
fold change in partC expression, geometric mean (95% C.I.) ([1]; substrate 1 % (w/v)): 0.36 (0.08-1.68)^∗ fold
fold change in rgpA expression, geometric mean (95% C.I.) ([1]; substrate 1 % (w/v)): 1.31 (1.03-1.66) fold
fold change in fimA expression, geometric mean (95% C.I.) ([1]; substrate 1 M): 0.79 (0.44-1.39) fold
fold change in kgp expression, geometric mean (95% C.I.) ([1]; substrate 1 M): 0.07 (0.04-0.13)^∗ fold
fold change in partC expression, geometric mean (95% C.I.) ([1]; substrate 1 M): 0.19 (0.13-0.28)^∗ fold
fold change in rgpA expression, geometric mean (95% C.I.) ([1]; substrate 1 M): 0.39 (0.18-0.84) fold
fold change in aae expression, geometric mean (95% C.I.) [2, 5]: 1.55 (1.18-2.03) fold
fold change in apaH expression, geometric mean (95% C.I.) [2, 5]: 0.73 (0.41-1.29) fold
fold change in cdtB expression, geometric mean (95% C.I.) [2, 5]: 1.05 (0.61-1.81) fold
fold change in emaA expression, geometric mean (95% C.I.) [2, 5]: 0.68 (0.15-3.07) fold
fold change in flp expression, geometric mean (95% C.I.) [2, 5]: 0.54 (0.19-1.56) fold
fold change in ltxA expression, geometric mean (95% C.I.) [2, 5]: 0.4 (0.11-1.39) fold
fold change in omp29 expression, geometric mean (95% C.I.) [2, 5]: 0.77 (0.69-0.87) fold
fold change in omp100 expression, geometric mean (95% C.I.) [2, 5]: 0.71 (0.42-1.18) fold
fold change in orf859 expression, geometric mean (95% C.I.) [2, 5]: 1.99 (0.94-4.22)* fold
fold change in pgA expression, geometric mean (95% C.I.) [2, 5]: 1.07 (0.29-3.97) fold
fold change in vapA expression, geometric mean (95% C.I.) [2, 5]: 0.65 (0.48-0.86) fold
fold change in vppA expression, geometric mean (95% C.I.) [2, 5]: 0.28 (0.09-0.86)* fold
fold change in aae expression, geometric mean (95% C.I.) [2, 6]: 0.24 (0.18-0.33)^∗ fold
fold change in apaH expression, geometric mean (95% C.I.) [2, 6]: 0.08 (0.02-0.29)^∗ fold
fold change in cdtB expression, geometric mean (95% C.I.) [2, 6]: 0.04 (0.01-0.20)* fold
fold change in emaA expression, geometric mean (95% C.I.) [2, 6]: 0.29 (0.07-1.20)* fold
fold change in flp expression, geometric mean (95% C.I.) [2, 6]: 2.40 (0.67-8.67) fold
fold change in ltxA expression, geometric mean (95% C.I.) [2, 6]: 0.01 (0.00-0.20)* fold
fold change in omp29 expression, geometric mean (95% C.I.) [2, 6]: 0.19 (0.09-0.38)* fold
fold change in omp100 expression, geometric mean (95% C.I.) [2, 6]: 0.03 (0.01-0.05)* fold
fold change in orf859 expression, geometric mean (95% C.I.) [2, 6]: 0.13 (0.05-0.36)* fold
fold change in pgA expression, geometric mean (95% C.I.) [2, 6]: 11.6 (3.23-41.74)* fold
fold change in vapA expression, geometric mean (95% C.I.) [2, 6]: 1.00 (0.58-1.75) fold
fold change in vppA expression, geometric mean (95% C.I.) [2, 6]: 0.49 (0.41-0.59) fold
fold change in ABC transp. perm. (ABC transporter permease) expression, geometric mean (95% C.I.) ([3]; substrate 1% (w/v)): 0.33 (0.12-0.87)^∗ fold
fold change in EF-G expression, geometric mean (95% C.I.) ([3]; substrate 1% (w/v)): 0.10 (0.02-0.45)^∗ fold
fold change in but. -coA transf. (butyrate-acetoacetate CoA-transferase) expression, geometric mean (95% C.I.) ([3]; substrate 1% (w/v)): 0.21 (0.11-0.39)^∗ fold
fold change in hemin receptor expression, geometric mean (95% C.I.) ([3]; substrate 1% (w/v)): 0.19 (0.02-1.67)^∗ fold
fold change in hemolysin expression, geometric mean (95% C.I.) ([3]; substrate 1% (w/v)): 0.79 (0.30-2.04) fold
fold change in ompA expression, geometric mean (95% C.I.) ([3]; substrate 1% (w/v)): 0.74 (0.18-2.98) fold
fold change in transposase expression, geometric mean (95% C.I.) ([3]; substrate 1% (w/v)): 0.98 (0.18-5.39) fold
upregulation of F. nucleatum virulence gene expression, range over genes ([3]; substrate 1 M): more limited and only significant for 2 genes
fold change in ABC transp. perm. (ABC transporter permease) expression, geometric mean (95% C.I.) ([3]; substrate 1 M): 3.33 (2.53-4.39)^∗ fold
fold change in EF-G expression, geometric mean (95% C.I.) ([3]; substrate 1 M): 1.45 (0.93-2.26) fold
fold change in but. -coA transf. (butyrate-acetoacetate CoA-transferase) expression, geometric mean (95% C.I.) ([3]; substrate 1 M): 1.21 (0.99-1.49) fold
fold change in hemin receptor expression, geometric mean (95% C.I.) ([3]; substrate 1 M): 3.26 (2.24-4.76)^∗ fold
fold change in hemolysin expression, geometric mean (95% C.I.) ([3]; substrate 1 M): 1.90 (1.29-2.79) fold
fold change in ompA expression, geometric mean (95% C.I.) ([3]; substrate 1 M): 1.33 (0.78-2.25) fold
fold change in transposase expression, geometric mean (95% C.I.) ([3]; substrate 1 M): 1.27 (0.68-2.37) fold
absolute abundance of V. parvula (VP), mean ± SD log (Geq/mL) (V. parvula; substrate 1% (w/v)): 9.77 ± 0.19 log (Geq/mL)
absolute abundance of V. parvula (VP), mean ± SD log (Geq/mL) (V. parvula; substrate 1 M in PBS, n = 3): 9.91 ± 0.19 log (Geq/mL)
absolute abundance of F. nucleatum (Fn), mean ± SD log (Geq/mL) (F. nucleatum; substrate 1% (w/v)): 9.41 ± 0.19 log (Geq/mL)
absolute abundance of F. nucleatum (Fn), mean ± SD log (Geq/mL) (F. nucleatum; substrate 1 M in PBS, n = 3): 7.22 ± 0.28^∗ log (Geq/mL)
absolute abundance of S. mutans, mean ± SD log (Geq/mL) (S. mutans; substrate 1% (w/v)): 7.83 ± 0.23 log (Geq/mL)
absolute abundance of S. mutans, mean ± SD log (Geq/mL) (S. mutans; substrate 1 M in PBS, n = 3): 7.96 ± 0.10 log (Geq/mL)
absolute abundance of S. salivarius, mean ± SD log (Geq/mL) (S. salivarius; substrate 1% (w/v)): 2.65 ± 0.00 log (Geq/mL)
absolute abundance of S. salivarius, mean ± SD log (Geq/mL) (S. salivarius; substrate 1 M in PBS, n = 3): 6.40 ± 0.29^∗ log (Geq/mL)
absolute abundance of S. sanguinis, mean ± SD log (Geq/mL) (S. sanguinis; substrate 1% (w/v)): 8.40 ± 0.11 log (Geq/mL)
absolute abundance of S. sanguinis, mean ± SD log (Geq/mL) (S. sanguinis; substrate 1 M in PBS, n = 3): 6.43 ± 0.94 log (Geq/mL)
absolute abundance of A. viscosus (Av), mean ± SD log (Geq/mL) (A. viscosus; substrate 1% (w/v)): 7.83 ± 0.31 log (Geq/mL)
absolute abundance of A. viscosus (Av), mean ± SD log (Geq/mL) (A. viscosus; substrate 1 M in PBS, n = 3): 6.72 ± 0.22 log (Geq/mL)
relative proportion of beneficial or commensal species in biofilm ([4]; Table 1a, substrate 1 M): 97.86±1.11 % (Geq/mL) and 97.86 (+/- 1.11)^∗ % (Geq/mL)
relative proportion of cariogenic pathogens in biofilm ([4]; Table 1a, substrate 1 M): 0.68±0.33 % (Geq/mL) and 0.68 (+/- 0.33) % (Geq/mL)
relative proportion of periodontal pathogens in biofilm ([4]; Table 1a, substrate 1 M): 1.46±0.97 % (Geq/mL) and 1.46 (+/- 0.97)^∗ % (Geq/mL)
relative proportion of beneficials/commensals in biofilm [4, 7]: 60.07 (+/- 8.25) % (Geq/mL)
relative proportion of cariogenic pathogens in biofilm [4, 7]: 0.66±0.27 % (Geq/mL) and 0.66 (+/- 0.27^∗) % (Geq/mL)
relative proportion of periodontal pathogens in biofilm [4, 7]: 39.27 (+/- 7.98) % (Geq/mL)

From patent publication US20230346670A1, “Prebiotic Oral Care Compositions and Methods” (Colgate-Palmolive Company, priority 2020, published 2023)
